This is an account of results in patent US10017453B2, “Pharmaceutically acceptable salts of fatty acids” (Dignity Sciences Limited, priority 2013, dated 2018).

For data set [1] the following is noted: ambient temperature; probably due to uptake of moisture.
The nature of data set [2]: 8 Day Stability 40/75% RH of solids from the salt/cocrystal screen. In kind it is physicochemical. As to conditions: 8 days.
Data set [3] in a line: Qualitative solubility observations of the salts. In kind it is physicochemical. As for the experimental part: An alternative method to prepare 15-HETrE sodium salt by slurrying and avoid need for rotary evaporation could not be found. […] Scale up and characterization was completed for 15-HETrE sodium salt using rotary evaporation from 10% aqueous EtOH, then EtOH. […] Purity as measured by UPLC analysis was ˜81%.
Products of each of the Reactions were white in appearance. Filtration was carried out with a sintered funnel (no. 3, 10 mm diameter) under mild vacuum. Some filter cake products were yellow in appearance. The first ˜200 μL of filtrate were transferred into an HPLC vial. Filtration of the remaining reaction mixture (alternating between high and medium vacuum) yielded a filter cake that was transferred to a vacuum chamber and dried overnight before being stored in a freezer.

A short description of data set [4]: Dynamic vapor sorption (DVS) analysis. Format: physicochemical. The settings on record: for Hygroscopicity according to the European Pharmacopeia classification: DVS. From the text:
Post DVS XRPD analysis was not conducted as the material deliquesced.

Data set [5] can be described thus: Storage stability up to 24 weeks, free acid versus lysine salt (FIG. 28). In kind it is physicochemical. As to the method:
The 15-HETrE-lysine salt is stable at 20° C. and 40% humidity as well as at 40° C. and 75% humidity, making the lysine salt useful for pharmaceutical applications. 15-HETrE lysine salt was prepared on a larger scale for the crystallization screen as a white powder.

A short description of data set [6]: Solvent-induced degradation of 15-(S)-HETrE lysine salt (ethyl acetate or methanol, overnight, UPLC). In kind it is physicochemical. As to the method:
An experiment to determine the degradation of 15-(S)-HETrE lysine salt, if any, when contacted with ethyl acetate or methanol. 15-(S)-HETrE lysine salt (100 mg) was dissolved in solvent (1 mL) and stirred overnight.

The nature of data set [7]: Reslurry of 15-(S)-HETrE lysine salt in ethyl acetate (impurity profile, NMR ratio). In kind it is physicochemical. As for the experimental part: An experiment was conducted to determine if the ratio of 15-(S)-HETrE to lysine would change after exposure to ethyl acetate. 15-(S)-HETrE lysine salt (100 mg) was suspended in HPLC grade ethyl acetate (1 mL) and stirred vigorously overnight at room temperature. The suspension was then filtered as described in previous examples. The impurity profiles of the starting 15-(S)-HETrE lysine salt (“before slurry”) and the slurried, filtered salt (“after reslurry”) are shown in Table 25.
NMR spectroscopy confirmed no change in the ratio of 15-(S)-HETrE-to-lysine ratio.

Data set [8] in a line: Chemical stability at ambient temperature under vacuum for 8 days. Format: physicochemical. The text has this:
Twenty four co-formers and acids were used to screen for stable forms of 15-HETrE but most yielded oils or gels. Salts with improved handling properties were isolated from the screen: sodium, ornithine, lysine, meglumine and piperazine, but all were poorly crystalline.
Properties of 15-HETrE salts prepared according to Examples 4-7 were compared against each other and against 15-HETrE free acid API.

Data set [9] in a line: Solubility screen of as-received 15-HETrE (aliquot addition method). In kind it is physicochemical. The settings on record: for solubility: organic solvent or mixture, estimated, read-out: Solubility Range. From the text: This is believed to be due to degradation of 15-HETrE, therefore HFIPA was not used in any further studies of 15-HETrE.
Data set [10] can be described thus: Degradation of 15-(S)-HETrE on exposure to isopropyl acetate (overnight, UPLC). Format: physicochemical. As for the experimental part: An experiment was conducted to examine whether any degradation would be observed upon exposure of 15-(S)-HETrE to isopropyl acetate. 15-(S)-HETrE (100 mg) was dissolved in isopropyl acetate (1 mL) and stirred overnight. This was sampled directly for UPLC analysis (Table 39).

Where [11] appears, read: in ethyl acetate, stirred overnight.
Setting [12] is: original salt, before solvent contact.
[13] abbreviates: after reslurry in ethyl acetate, overnight, room temperature.
The mark [14] stands for this setting: before exposure to isopropyl acetate.
[15] abbreviates: in isopropyl acetate, stirred overnight.

In brackets after ≈: the same amount, converted by molar mass.

As for `C1CNCCN1.CCCCCC(O)/C=C/C=C\C/C=C\CCCCCCC(=O)O` (stereo not shown) [15-HETrE piperazine salt, 15-Hydroxy-eicosa-8(Z),11(Z),13(E)-trienoic acid piperazine salt], in data set [1], the “Behaviour on exposure to air” value is reported as “appears to flow on exposure to air at ambient temperature”.
One may read the solubility as how much of the substance goes into solution per volume. Regarding `CCCCCC(O)/C=C/C=C\C/C=C\CCCCCCC(=O)[O-].[Na+]` (stereo not shown) [15-HETrE sodium salt, 15-Hydroxy-eicosa-8(Z),11(Z),13(E)-trienoic acid sodium salt], the “8 Day Stability 40/75% RH” value in data set [2] was 95% purity. For the same molecule, the solubility entry in [3] (water used in the slurry preparation, salt did not precipitate) is on record as “highly soluble”. Further, the “Hygroscopicity according to the European Pharmacopeia classification” value in data set [4] is reported as “very hygroscopic”. In data set [4] (below 40% RH), the DVS weight gain entry was “less than 1%”. In addition, the DVS behaviour result in data set [4] (high RH) is “deliquesced”.
As to `CCCCCC(O)/C=C/C=C\C/C=C\CCCCCCC(=O)O.NCCCC[C@H](N)C(=O)O` (stereo not shown) [15-HETrE lysine salt, 15-Hydroxy-eicosa-8(Z),11(Z),13(E)-trienoic acid lysine salt], the Storage stability result in data set [5] (20° C. and 40% humidity) is “stable”. Besides, the Storage stability entry in data set [5] (40° C. and 75% humidity) is on record as “stable”. Also, in data set [2], the “8 Day Stability 40/75% RH” value turned out to be 97% purity. For the same molecule, in [6] (setting [11]), the “HETrE (RRT 1) peak area” value came out at 94.20%, the “IMP 1 (RRT 0.62) peak area” value is 0.05%, the “IMP 2 (RRT 0.64) peak area” value is reported as 0.86% and the “IMP 3 (RRT 0.69) peak area” value stood at 0.96%. In data set [6] (setting [11]), the “IMP 4 (RRT 0.91) peak area” value was determined as 1.30%, the “IMP 5 (RRT 1.03) peak area” value turned out to be 0.29%, the “IMP 6 (RRT 1.1) peak area” value is recorded as 1.35% and the “IMP 7 (RRT 1.75) peak area” value is 0.14%. In addition, in [6] (in methanol, stirred overnight), the “HETrE (RRT 1) peak area” value was determined as 95.40%, the “IMP 1 (RRT 0.62) peak area” value is reported as 0.03%, the “IMP 2 (RRT 0.64) peak area” value stood at 0.24% and the “IMP 3 (RRT 0.69) peak area” value is on record as 0.45%. Moreover, in data set [6] (in methanol, stirred overnight), the “IMP 4 (RRT 0.91) peak area” value is 1.16%, the “IMP 5 (RRT 1.03) peak area” value stood at 0.13%, the “IMP 6 (RRT 1.1) peak area” value is reported as 1.34% and the “IMP 7 (RRT 1.75) peak area” value is 0.31%. In [6] (setting [12]), the “HETrE (RRT 1) peak area” value was determined as 95.67%, the “IMP 1 (RRT 0.62) peak area” value is 0.20%, the “IMP 2 (RRT 0.64) peak area” value was determined as 0.12% and the “IMP 3 (RRT 0.69) peak area” value is on record as 0.27%. Moreover, in data set [6] (setting [12]), the “IMP 4 (RRT 0.91) peak area” value worked out at 1.30%, the “IMP 5 (RRT 1.03) peak area” value is reported as 0%, the “IMP 6 (RRT 1.1) peak area” value is 1.44% and the “IMP 7 (RRT 1.75) peak area” value came to 0.55%. Moreover, in data set [3] (DMSO), the solubility entry was “insoluble”. Besides, in [3] (chloroform), the solubility entry is given as “insoluble”. Besides, the solubility entry in data set [3] (water) is “dissolves readily”. Also, in data set [7] (setting [13]), the “HETrE (RRT 1) in impurity profile” value came to 95.69, the “IMP 1 (RRT 0.62) in impurity profile” value is listed as 0.16, the “IMP 2 (RRT 0.64) in impurity profile” value came to 0.39 and the “IMP 3 (RRT 0.69) in impurity profile” value amounted to 0.16. In addition, in [7] (setting [13]), the “IMP 4 (RRT 0.91) in impurity profile” value worked out at 1.08, the “IMP 5 (RRT 1.03) in impurity profile” value was 0.07, the “IMP 6 (RRT 1.1) in impurity profile” value worked out at 1.47 and the “IMP 7 (RRT 1.75) in impurity profile” value stood at 0.11. In addition, in data set [7] (before reslurry), the “HETrE (RRT 1) in impurity profile” value came to 96.66, the “IMP 1 (RRT 0.62) in impurity profile” value worked out at 0.04, the “IMP 2 (RRT 0.64) in impurity profile” value is 0.09 and the “IMP 3 (RRT 0.69) in impurity profile” value is on record as 0.11. Further, in data set [7] (before reslurry), the “IMP 4 (RRT 0.91) in impurity profile” value amounted to 1.01, the “IMP 5 (RRT 1.03) in impurity profile” value was 0.15, the “IMP 6 (RRT 1.1) in impurity profile” value is 1.39 and the “IMP 7 (RRT 1.75) in impurity profile” value was determined as 0.26. The “Change in 15-(S)-HETrE-to-lysine ratio after reslurry” value in [7] (ethyl acetate, overnight, room temperature, NMR) was “no change”. Further, the Chemical stability entry in [8] is “chemically stable”. Besides, the “Hygroscopicity according to the European Pharmacopeia classification” value in data set [4] is “hygroscopic”. Further, the DVS behaviour result in data set [4] (above 80% RH) is recorded as “deliquesced”. For the same molecule, the DVS weight gain entry in data set [4] (below 70% RH) is reported as “less than 1%”. The “DVS additional weight gain” value in data set [4] (between 70-80% RH) was 1%.
For the molecule `CCCCCC(O)/C=C/C=C\C/C=C\CCCCCCC(=O)O` (stereo not shown) [15-HETrE, 15-Hydroxy-eicosa-8(Z),11(Z),13(E)-trienoic acid], in data set [5] (stored up to 24 weeks at −20° C., 2-8° C., 25° C.), the Storage stability entry is “unstable and degrades at all conditions with the exception of −20 °C”. In data set [9] (1,1,1,3,3,3-hexafluoroisopropyl acrylate (HFIPA), believed to be degradation), the “Stability when combined with HFIPA” value is given as “rapid color change from clear, colorless to blood red to deep purple/black”. Moreover, the solubility in [9] (Acetone) was 3120 to 9360 µg/mL (≈ 9.67 to 29 mM). For the same molecule, in data set [9] (Acetonitrile (ACN)), the solubility was 930 to 2780 µg/mL (≈ 2.88 to 8.62 mM). Further, the solubility in [9] (DCM) is 1170 to 3520 µg/mL (≈ 3.63 to 10.9 mM). Moreover, the solubility in data set [9] (DMF) is 1230 to 3680 µg/mL (≈ 3.81 to 11.4 mM). Moreover, the solubility in data set [9] (Dioxane) is 1660 to 4980 µg/mL (≈ 5.15 to 15.4 mM). In addition, the solubility in data set [9] (Ethanol (EtOH)) is 1260 to 3780 µg/mL (≈ 3.91 to 11.7 mM). Also, in data set [9] (Ethyl acetate (EtOAc)), the solubility is 1890 to 5660 µg/mL (≈ 5.86 to 17.6 mM). Also, the solubility in [9] (Methanol (MeOH)) was 2120 to 6360 µg/mL (≈ 6.57 to 19.7 mM). Also, the solubility in data set [9] (THF) is 3320 to 9960 µg/mL (≈ 10.3 to 30.9 mM). Also, the Miscibility in solvents result in data set [9] (ten solvents tested) is recorded as “miscible in all solvents tested”. In addition, in [10] (setting [14]), the “HETrE (RRT 1) peak area” value is listed as 91.38%, the “IMP 1 (RRT 0.62) peak area” value is reported as 0.12%, the “IMP 2 (RRT 0.64) peak area” value was 0.51% and the “IMP 3 (RRT 0.66) peak area” value is given as 0.89%. In data set [10] (setting [14]), the “IMP 4 (RRT 0.69) peak area” value was determined as 0.13%, the “IMP 5 (RRT 0.72) peak area” value is on record as 1.29%, the “IMP 6 (RRT 0.85) peak area” value came to 0.16% and the “IMP 7 (RRT 0.91) peak area” value was determined as 1.17%. In data set [10] (setting [14]), the “IMP 8 (RRT 0.98) peak area” value amounted to 0.29%, the “IMP 9 (RRT 1.03) peak area” value is on record as 0.18%, the “IMP 10 (RRT 1.1) peak area” value was 1.41% and the “IMP 11 (RRT 1.75) peak area” value is 0.88%. Besides, in data set [10] (setting [15]), the “HETrE (RRT 1) peak area” value came to 85.56%, the “IMP 1 (RRT 0.62) peak area” value was determined as 0.22%, the “IMP 2 (RRT 0.64) peak area” value stood at 1.48% and the “IMP 3 (RRT 0.66) peak area” value came to 1.47%. For the same molecule, in data set [10] (setting [15]), the “IMP 4 (RRT 0.69) peak area” value is recorded as 0.19%, the “IMP 5 (RRT 0.72) peak area” value came out at 3.02%, the “IMP 6 (RRT 0.85) peak area” value is on record as 0.43% and the “IMP 7 (RRT 0.91) peak area” value came out at 1.56%. In [10] (setting [15]), the “IMP 8 (RRT 0.98) peak area” value was determined as 0.62%, the “IMP 9 (RRT 1.03) peak area” value came to 0.28%, the “IMP 10 (RRT 1.1) peak area” value is recorded as 1.79% and the “IMP 11 (RRT 1.75) peak area” value is 1.14%.
